From paper PMC7146381, “Modulation of Adhesion Process, E-Selectin and VEGF Production by Anthocyanins and Their Metabolites in an In Vitro Model of Atherosclerosis” (Nutrients, 2020)
Marks after values point to notes of the source that are not given here.

Assays:
[1] = Cytotoxicity, Trypan blue assay on HUVECs; assay type: cell-based, Human; conditions: human
Procedure: (§1) The cytotoxicity of the compounds was tested by Trypan blue and (3-(4,5-dimethylthiazol-2-yl)-2, 5-diphenyltetrazolium bromide (MTT) assay on HUVECs, according to the manufacturer’s instructions. Triton X-100 was used as positive control. Two independent experiments were performed in which each compound and concentration was tested in quadruplicate.

[2] = Cytotoxicity, MTT assay on HUVECs; assay type: cell-based; conditions: human, with TNF-α stimulus, mean ± SEM, read-out: Percentage of cell viability, MTT assay
Procedure: as §1

THP-1 adhesion to HUVECs = assay: THP-1 (monocytes) adhesion to TNF-α-activated HUVECs, fluorescence of labelled THP-1; assay type: cell-based, Human; conditions: 24 h after TNF-α 100 ng mL^−1
Procedure: (§2) When the confluency reached about 80%, HUVECs were removed using trypsin ([…]) and seeded on a 0.1% gelatin pre-coated 96-well black plate at the concentration of 2 × 10^4 cells/well at 37 °C and 5% CO2. After 24 h incubation, THP-1 (2 × 10^6) cells were labelled with CellTracker^TM Green CMFDA (1 µM) in 1 mL serum-free RPMI medium (containing 1% HEPES, 1% sodium pyruvate and 0.1% gentamicin) for 30 min. Successively, cells were washed twice, re-suspended in HUVEC medium at a final concentration of 2 × 10^5 cells mL^−1 and added to HUVECs. The adhesion process was induced for 24 h with 100 ng mL^−1 of TNF-α. Then, 200 μL of new medium containing the single compounds (0.02 µM, 0.2 µM, 2 µM and 20 µM for Peo and Pet-3-glc and 0.05 µM, 0.5 µM, 5 µM and 50 µM for VA and MetGA) was added and the cells were further incubated for 24 h. Medium from each well was collected and stored at −80 °C until ELISA analysis. Cells were rinsed twice with 200 µL of Hanks balanced salt solution and the fluorescence (excitation: 485 nm, emission: 538 nm) associated with the number of labeled THP-1 cells attached to the HUVECs was measured by a spectrophotometer (mod. F200 Infinite, TECAN Milan, Italy). Each compound and concentration were tested in quintuplicate in three independent experiments.

E-selectin = assay: ELISA quantification of E-selectin in cell supernatant; assay type: cell-based, Human; conditions: for levels of E-selectin in cell supernatant: with TNF-α 100 ng mL^−1, mean ± SEM; for change of E-selectin levels compared to the negative control (without TNF-α): p < 0.05
Procedure: as §2
(§3) At the end of the experiment, the recovered cell culture supernatants were used to quantify the concentrations of soluble VCAM-1 (Cat# EK0537, BosterBio), E-selectin (Cat# MBS355367, MyBioSource) and VEGF (Cat# V3-200-820-VEF, Vinci-Biochem). The analysis was performed using ELISA kits according to the manufacturer’s instruction. The analyses were conducted in quadruplicate and the results derived from three independent experiments.

soluble VCAM-1 = assay: ELISA quantification of soluble VCAM-1 in cell supernatant; assay type: cell-based, Human; conditions: with TNF-α 100 ng mL^−1, mean ± SEM
Procedure: as §2, §3

VEGF = assay: ELISA quantification of VEGF in cell supernatant; assay type: cell-based, Human; conditions: for levels of VEGF in cell supernatant: with TNF-α 100 ng mL^−1, mean ± SEM
Procedure: as §2, §3

[3] = test system: adhesion of monocytes to endothelial cells; set-up: method as in PMID 26873533; conditions: TNF-α 4 h, monocyte co-incubation 15 min; cited from earlier work
HUVECs = assay: Cytotoxicity, Trypan blue assay on HUVECs; assay type: cell-based, Human; conditions: positive control, HUVEC cells, data not shown; p < 0.0001 vs cells with and without TNF-α (99%)
Procedure: as §1

[4] = 0.02 µM, controls 160-164 (no TNF-α), 316-317 (TNF-α)
[5] = 0.02 µM, controls 59-64 (no TNF-α), 307-316 (TNF-α)
[6] = 0.02 µM, controls 120-121 (no TNF-α), 170-172 (TNF-α)

COc1cc(-c2[o+]c3cc(O)cc(O)c3cc2O[C@@H]2O[C@H](CO)[C@@H](O)[C@H](O)[C@H]2O)ccc1O [Peo-3-glc, peonidin-3-glucoside]
viability at 0.02 µM [1]: 99.7 ± 0.33% | viability at 0.2 µM [1]: 100% | viability at 2 µM [1]: 99.3 ± 0.67% | viability at 20 µM [1]: 99.3 ± 0.33% | viability at 20 µM [2]: 98.5 ± 0.12% | change of THP-1 adhesion to HUVECs compared to the TNF-α treatment (THP-1 adhesion to HUVECs; 0.02 µM, p < 0.0001): −37% | change of THP-1 adhesion to HUVECs compared to the TNF-α treatment (THP-1 adhesion to HUVECs; 0.2 µM, p < 0.0001): −24% | change of THP-1 adhesion to HUVECs compared to the TNF-α treatment (THP-1 adhesion to HUVECs; 2 µM, p < 0.0001): −30% | change of THP-1 adhesion to HUVECs compared to the TNF-α treatment (THP-1 adhesion to HUVECs; 20 μM, p < 0.0001): −47% | levels of E-selectin in cell supernatant (E-selectin; [4]): 143 ± 4.3 ^a | change of E-selectin production vs TNF-α control (E-selectin; 0.02 μM, p < 0.001): −55% | levels of E-selectin in cell supernatant (E-selectin; 0.2 µM): 108 ± 5.3 ^c | change of E-selectin production vs TNF-α control (E-selectin; 0.2 μM, p < 0.001): −66% | change of E-selectin levels compared to the negative control (without TNF-α) (E-selectin; 0.2 μM): −32% | levels of E-selectin in cell supernatant (E-selectin; 2 µM): 109 ± 7.2 ^c | change of E-selectin production vs TNF-α control (E-selectin; 2 μM, p < 0.001): −65% | change of E-selectin levels compared to the negative control (without TNF-α) (E-selectin; 2 μM): −31% | levels of E-selectin in cell supernatant (E-selectin; 20 µM): 76 ± 8.4 ^c | change of E-selectin production vs TNF-α control (E-selectin; 20 μM, p < 0.001): −76% | change of E-selectin levels compared to the negative control (without TNF-α) (E-selectin; 20 µM): −53% | levels of sVCAM-1 in cell supernatant (soluble VCAM-1; [5]): 107 ± 15 ^c | levels of sVCAM-1 in cell supernatant (soluble VCAM-1; 0.2 µM): 104 ± 16 ^c | levels of sVCAM-1 in cell supernatant (soluble VCAM-1; 2 µM): 186 ± 12 ^c | levels of sVCAM-1 in cell supernatant (soluble VCAM-1; 20 µM): 149 ± 24 ^c | levels of VEGF in cell supernatant (VEGF; [6]): 120 ± 6.9 ^a | change of VEGF concentrations vs TNF-α (VEGF; 0.02 μM, p < 0.001): −27% | levels of VEGF in cell supernatant (VEGF; 0.2 µM): 123 ± 1.7 ^a | change of VEGF concentrations vs TNF-α (VEGF; 0.2 μM, p < 0.001): −28% | levels of VEGF in cell supernatant (VEGF; 2 µM): 123 ± 6.0 ^a | change of VEGF concentrations vs TNF-α (VEGF; 2 μM, p < 0.001): −30% | levels of VEGF in cell supernatant (VEGF; 20 µM): 119 ± 2.6 ^a | change of VEGF concentrations vs TNF-α (VEGF; 20 μM, p < 0.001): −30% | concentrations with significant reduction in the adhesion of monocytes to endothelial cells [3]: effective only at the lowest concentration

COc1cc(-c2[o+]c3cc(O)cc(O)c3cc2O[C@@H]2O[C@H](CO)[C@@H](O)[C@H](O)[C@H]2O)cc(O)c1O [Pet-3-glc, petunidin-3-glucoside]
viability at 0.02 µM [1]: 110% | viability at 0.2 µM [1]: 97 ± 1% | viability at 2 µM [1]: 97.7 ± 0.33% | viability at 20 µM [1]: 100% | viability at 20 µM [2]: 94.4 ± 0.45% | change of THP-1 adhesion to HUVECs compared to the TNF-α treatment (THP-1 adhesion to HUVECs; 0.02 µM, p < 0.0001): −37% | change of THP-1 adhesion to HUVECs compared to the TNF-α treatment (THP-1 adhesion to HUVECs; 0.2 µM, p < 0.0001): −33% | change of THP-1 adhesion to HUVECs compared to the TNF-α treatment (THP-1 adhesion to HUVECs; 2 µM, p < 0.0001): −33% | change of THP-1 adhesion to HUVECs compared to the TNF-α treatment (THP-1 adhesion to HUVECs; 20 μM, p < 0.0001): −45% | levels of E-selectin in cell supernatant (E-selectin; [4]): 115 ± 7.5 ^c | change of E-selectin production vs TNF-α control (E-selectin; 0.02 μM, p < 0.001): −64% | change of E-selectin levels compared to the negative control (without TNF-α) (E-selectin; 0.02 µM): −28% | levels of E-selectin in cell supernatant (E-selectin; 0.2 µM): 123 ± 11.8 ^a,c | change of E-selectin production vs TNF-α control (E-selectin; 0.2 μM, p < 0.001): −60% | levels of E-selectin in cell supernatant (E-selectin; 2 µM): 104 ± 6.3 ^c | change of E-selectin production vs TNF-α control (E-selectin; 2 μM, p < 0.001): −67% | change of E-selectin levels compared to the negative control (without TNF-α) (E-selectin; 2 μM): −36% | levels of E-selectin in cell supernatant (E-selectin; 20 µM): 88 ± 12.1 ^c | change of E-selectin production vs TNF-α control (E-selectin; 20 μM, p < 0.001): −72% | change of E-selectin levels compared to the negative control (without TNF-α) (E-selectin; 20 µM): −45% | levels of sVCAM-1 in cell supernatant (soluble VCAM-1; [5]): 311 ± 13 ^b | levels of sVCAM-1 in cell supernatant (soluble VCAM-1; 0.2 µM): 297 ± 15 ^b | levels of sVCAM-1 in cell supernatant (soluble VCAM-1; 2 µM): 300 ± 14 ^b | levels of sVCAM-1 in cell supernatant (soluble VCAM-1; 20 µM): 83 ± 10 ^c | levels of VEGF in cell supernatant (VEGF; [6]): 129 ± 10 ^a | change of VEGF concentrations vs TNF-α (VEGF; 0.02 μM, p < 0.001): −24% | levels of VEGF in cell supernatant (VEGF; 0.2 µM): 123 ± 7.4 ^a | change of VEGF concentrations vs TNF-α (VEGF; 0.2 μM, p < 0.001): −27% | levels of VEGF in cell supernatant (VEGF; 2 µM): 123 ± 2.9 ^a | change of VEGF concentrations vs TNF-α (VEGF; 2 μM, p < 0.001): −28% | levels of VEGF in cell supernatant (VEGF; 20 µM): 117 ± 9.9 ^a | change of VEGF concentrations vs TNF-α (VEGF; 20 μM, p < 0.001): −30%

COc1cc(C(=O)O)ccc1O [VA, vanillic acid]
viability at 0.05 µM [1]: 100% | viability at 0.5 µM [1]: 99.7 ± 0.33% | viability at 5 µM [1]: 99.7 ± 0.66% | viability at 50 µM [1]: 99.3 ± 0.67% | viability at 50 µM ([2]; 50 µM): 99.7 ± 0.32% | change of THP-1 adhesion to HUVECs compared to the TNF-α treatment (THP-1 adhesion to HUVECs; 50 μM, p < 0.001): −21% | levels of E-selectin in cell supernatant (E-selectin; 0.05 µM): 312 ± 14.1 ^b | levels of E-selectin in cell supernatant (E-selectin; 0.5 µM): 312 ± 11.2 ^b | levels of E-selectin in cell supernatant (E-selectin; 5 µM): 305 ± 7.4 ^b | levels of E-selectin in cell supernatant (E-selectin; 50 µM): 95 ± 13.2 ^c | change of E-selectin levels with respect to the positive TNF-α control (E-selectin; 50 μM, p < 0.001): −70% | change of VEGF concentrations vs TNF-α (VEGF; 0.05 μM): −12% | levels of VEGF in cell supernatant (VEGF; 0.05 µM): 149 ± 3.0 ^c | change of VEGF concentrations vs TNF-α (VEGF; 0.5 μM): −17% | levels of VEGF in cell supernatant (VEGF; 0.5 µM): 141 ± 8.3 ^c | change of VEGF concentrations vs TNF-α (VEGF; 5 μM): −13% | levels of VEGF in cell supernatant (VEGF; 5 µM): 147 ± 4.9 ^c | change of VEGF concentrations vs TNF-α (VEGF; 50 μM): −21% | levels of VEGF in cell supernatant (VEGF; 50 µM): 135 ± 5.7 ^c | concentrations with significant reduction in the adhesion of monocytes to endothelial cells [3]: 0.2 μM and 2 µM only

Oc1cc(O)c2cc(O[C@@H]3OC[C@H](O)[C@H](O)[C@H]3O)c(-c3ccc(O)c(O)c3)[o+]c2c1 [arabinoside]
concentrations with significant reduction in the adhesion of monocytes to endothelial cells [3]: 0.1 to 2 µM

OC[C@H]1O[C@@H](Oc2cc3c(O)cc(O)cc3[o+]c2-c2ccc(O)c(O)c2)[C@H](O)[C@@H](O)[C@@H]1O [cyanidin-3-glucoside]
concentrations with significant reduction in the adhesion of monocytes to endothelial cells [3]: 0.1 to 2 µM

OC[C@H]1O[C@@H](Oc2cc3c(O)cc(O)cc3[o+]c2-c2cc(O)c(O)c(O)c2)[C@H](O)[C@@H](O)[C@@H]1O [delphinidin-3-glucoside]
concentrations with significant reduction in the adhesion of monocytes to endothelial cells [3]: all the concentrations tested

COc1cc(/C=C/C(=O)O)ccc1O [ferulic, ferulic acid]
concentrations with significant reduction in the adhesion of monocytes to endothelial cells [3]: only effective at 1 μM and 2 µM

OC[C@H]1O[C@@H](Oc2cc3c(O)cc(O)cc3[o+]c2-c2ccc(O)c(O)c2)[C@H](O)[C@@H](O)[C@H]1O [galactoside]
concentrations with significant reduction in the adhesion of monocytes to endothelial cells [3]: 0.1 to 2 µM

O=C(O)CNC(=O)c1ccccc1 [hippuric acids, hippuric acid]
concentrations with significant reduction in the adhesion of monocytes to endothelial cells [3]: only effective at 1 μM and 2 µM

O=C(O)c1ccc(O)c(O)c1 [protocatechuic acid]
concentrations with significant reduction in the adhesion of monocytes to endothelial cells [3]: all concentration tested

Triton X-100 [reference compound]
cell viability reduced up to (HUVECs): 20%
